Assay results published in patent US7825270B2, “Inositolphospholipids and analogues: phosphatidylinositol products and processes” (Nutrimed Biotech, priority 2005, dated 2010).
Blank lines part the entries; values can stand above or below the substance they belong to.

Tests used:
[1] = test system: epithelial cell proliferation; conditions: cited from earlier work
[2] = solubility in organic solvents; format: physicochemical; conditions: alcohol, acetone, ethyl acetate or methanol
HDL-C levels = conditions: administration of PI, humans; cited from earlier work

Substance: D-myo-inositol 4-(hexadecyloxy)-3(S)methoxy-butane-phosphonate
inhibition of epithelial cell proliferation [1]: inhibit epithelial cell proliferation

solubility in solvents [2]: dissolved easily
Substance: Soy PI-2,3,4,5,6-penta-O-tetrahydropyranyl ether

Substance: phosphatidylinositol [PI]
effect on HDL-C levels (HDL-C levels): raises HDL-C levels
